{"source": "patent US6603023B2", "about": "(priority 1996, dated 2003)", "key": {"MCF-7": {"system": "MCF-7", "assay": "SRB cytotoxicity, MCF-7", "format": "cell-based, human", "conditions": "Table 1C; SRB, 72 h; read-out: IC50", "protocol": "(§1) The cytotoxicity of the drug toward the monolayer cell cultures (such as DC-3F, MCF-7, SK-N-As and sublines) was determined in 96-well microtiter plates by the SRB method as described by Skehan and co-workers (Skehan, P., et al., J. Natl. Cancer Inst. 1990, 82, 1107-1112) for measuring the cellular protein content. Cultures were fixed with trichloroacetic acid and then stained for 30 min with 0.4% suforhodamine B dissolved in 1% acetic acid. Unbound dye was removed by acetic acid washes, and the protein-bound dye was extracted with an unbuffered Tris base (tris(hydroxy-methyl)aminomethane) for determination of absorbance at 570 nm in a 96-well microtiter plate reader. The experiments were carried out in duplicate. Each run entailed six to seven concentrations of the tested drugs. Data were analyzed with the median-effect plot (Chou, T.-C. & Talalay, P. T. (1984) Adv. Enzyme Regul. 22, 27-55) using a previously described computer program (Chou, J., & Chou T.-C. 1987, Dose-effect analysis with microcomputers: Quantitation of ED50, synergism, antagonism, low-dose risk, reception-ligand binding and enzyme kinetics, IBM-PC software and manual, Biosoft, Cambridge, U.K.)."}, "murine leukemic P388/0": {"system": "murine leukemic P388/0", "assay": "XTT cytotoxicity, P388/0", "format": "cell-based", "conditions": "Table 1C; XTT, 72 h; read-out: IC50", "protocol": "(§2) The DC-3F hamster lung fibroblast cell line and its actinomycin D-selected sublines (DC-3F/ADII and DC-3F/ADX) were obtained from the Memorial Sloan-Kettering Cancer Center (MSKCC).\n(§3) The drug-resistant cell lines were continuously cultured in the presence of the selecting agent, AD, DX, VBL or VM to maintain the drug resistant phenotypes. […] All cells were cultured in RPMI 1640-10% FBS at 37° C. 5% CO2 (see below).\n(§4) The cells were cultured at an initial density of 5×10^4 cells/mL. They were maintained in a 5% CO2-humidified atmosphere at 37° C. in RPMI-1640 medium (GIBCO-BRL, Gaithersburg, Md.) containing penicillin (100 U/mL), streptomycin ([…]) (GIBCO-BRL) and 10% heat inactivate fetal bovine serum. Culture for cell suspension (such as for CCRF-CEM, P388 and sublines), were performed by the XTT-microculture tetrazonium method (Scudiero, D. A. et al., Cancer Res. 1988, 48, 4827-4833) in duplicate in 96-well microtiter plates.\n(§5) 2′,3′-Bis(methoxy-4-nitro-5-sufophenyl)-5-[(phenylamino)carbonyl]2H-tetrazolium hyudroxide (XTT) was prepared at 1 mg/mL in prewarmed (37° C.) medium without serum. Phenazine methosulfate (PMS) and fresh XTT were mixed together to obtain 0.025 mM PMS-XTT solution (25 μL of the stock 5 mM PMS was added per 5 mL of 1 mg/mL XTT). Following a 72 h incubation, 50 μL of the assay aliquots were added to each well of the cell culture. After incubation at 37° C. for 4 h, absorbance at 450 nm and 630 nm was measured with a microplate reader (EL340, Bio-Tek Instruments, Inc., Winooski, Vt.)."}, "CCRF-CEM/Taxol®": {"system": "CCRF-CEM/Taxol®", "assay": "cells", "format": "cell-based, human", "protocol": "as §3, §4, §5"}, "CCRF-CEM/VBL100": {"system": "CCRF-CEM/VBL100", "assay": "cells", "format": "cell-based, human", "protocol": "as §3, §4, §5"}, "CCRF-CEM/VM1": {"system": "CCRF-CEM/VM1", "assay": "cells", "format": "cell-based, human", "protocol": "as §3, §4, §5"}, "[1]": {"system": "human neuroblastoma SK-N-As", "assay": "SRB cytotoxicity, SK-N-As", "format": "cell-based", "conditions": "Table 1C; SRB, 72 h; read-out: IC50", "protocol": "as §2, §3, §1"}, "P388/Adr": {"system": "P388/Adr", "assay": "cells", "format": "cell-based, murine", "conditions": "Table 1C", "protocol": "as §3, §4, §5"}, "MCF-7/Adr": {"system": "MCF-7/Adr", "assay": "cells", "format": "cell-based, human", "conditions": "Table 1C", "protocol": "Cultures were fixed with trichloroacetic acid and then stained for 30 min with 0.4% suforhodamine B dissolved in 1% acetic acid. Unbound dye was removed by acetic acid washes, and the protein-bound dye was extracted with an unbuffered Tris base (tris(hydroxy-methyl)aminomethane) for determination of absorbance at 570 nm in a 96-well microtiter plate reader. The experiments were carried out in duplicate. Each run entailed six to seven concentrations of the tested drugs."}, "SK-N-FI": {"system": "SK-N-FI", "assay": "cells", "format": "cell-based, human", "conditions": "Table 1C", "protocol": "as §3, §1"}, "[2]": {"system": "CCRF-CEM human T-cell acute lymphoblastic leukemia cell line", "assay": "XTT cytotoxicity (cell growth inhibition), CCRF-CEM", "protocol": "as §2, §3, §4, §5"}, "DC-3F/ADX": {"system": "DC-3F/ADX", "assay": "cells", "format": "cell-based, hamster", "conditions": "for IC50: read-out: IC50", "protocol": "as §2, §3, §1\nConcerning Table 3, experiments were carried out using the cell lines DC-3F (parent hamster lung cells), DC-3F/ADII (moderate multidrug-resistant (MDR) cells) and DC-3F/ADX (very strong MDR cells)."}, "[3]": {"system": "DC-3F hamster lung fibroblast cell line", "assay": "SRB cytotoxicity, DC-3F", "format": "cell-based", "conditions": "read-out: IC50", "protocol": "as §2, §3, §1"}, "[4]": {"conditions": "Table 1A, XTT, 72 h, read-out: IC50"}}, "note": "Read-outs that look alike come from different tables or passages of the source. Marks after values point to notes of the source that are not given here.", "data": [{"compound": "C/C(=C\\c1csc(C)n1)[C@@H]1C[C@@H]2O[C@@H]2CCC[C@H](C)[C@H](O)[C@@H](C)C(=O)C(C)(C)[C@@H](O)CC(=O)O1", "note": "[Epothilone A, epothilone A]", "values": [{"measurement": "IC50", "setting": "MCF-7", "result": 3, "unit": "nM"}, {"measurement": "IC50", "setting": "murine leukemic P388/0", "result": 1.8, "unit": "nM"}, {"measurement": "(C)/(A) IC50 ratio", "setting": "CCRF-CEM/Taxol®", "result": 1.4}, {"measurement": "IC50", "setting": "CCRF-CEM/Taxol®; [4]", "result": 3.7, "unit": "nM"}, {"measurement": "(B)/(A) ratio (fold resistance >1, collateral sensitivity <1)", "setting": "CCRF-CEM/VBL100", "result": "(7.5)^a"}, {"measurement": "fold resistance (cross-resistance) vs parent CCRF-CEM", "setting": "CCRF-CEM/VBL100; CCRF-CEM/VBL100 MDR cells", "result": 8, "unit": "fold"}, {"measurement": "IC50", "setting": "CCRF-CEM/VBL100; Table 1, XTT, read-out: IC50", "result": 20, "unit": "nM"}, {"measurement": "(B)/(A) IC50 ratio", "setting": "CCRF-CEM/VBL100; Table 1A, CCRF-CEM/VBL100 vs CCRF-CEM", "result": 7.4}, {"measurement": "IC50", "setting": "CCRF-CEM/VBL100; [4]", "result": 20, "unit": "nM"}, {"measurement": "IC50", "setting": "CCRF-CEM/VBL100; Table 2A, MDR cell line, read-out: IC50 (B)", "result": 24, "unit": "nM"}, {"measurement": "IC50", "setting": "CCRF-CEM/VBL100; Table 7, CEM/VBL, read-out: IC50", "result": 20.3, "unit": "nM"}, {"measurement": "IC50", "setting": "CCRF-CEM/VBL100; read-out: IC50", "result": 20, "unit": "nM"}, {"measurement": "(C)/(A) ratio (fold resistance >1, collateral sensitivity <1)", "setting": "CCRF-CEM/VM1", "result": "(1.06)^a"}, {"measurement": "IC50", "setting": "CCRF-CEM/VM1; Table 1, XTT, read-out: IC50", "result": 3, "unit": "nM"}, {"measurement": "(D)/(A) IC50 ratio", "setting": "CCRF-CEM/VM1; Table 1A, CCRF-CEM/VM1 vs CCRF-CEM", "result": 2.3}, {"measurement": "IC50", "setting": "CCRF-CEM/VM1; [4]", "result": 6.1, "unit": "nM"}, {"measurement": "IC50", "setting": "CCRF-CEM/VM1; Table 2A, Topo II gene mutated cell line, read-out: IC50 (C)", "result": 3.4, "unit": "nM"}, {"measurement": "IC50", "setting": "[1]", "result": 12, "unit": "nM"}, {"measurement": "folds of resistance (IC50 ratio vs parent cell line)", "setting": "P388/Adr; P388/Adr vs P388/O", "result": "(5.3x)#"}, {"measurement": "IC50", "setting": "P388/Adr; XTT, 72 h, read-out: IC50", "result": 1, "unit": "nM"}, {"measurement": "folds of resistance (IC50 ratio vs parent cell line)", "setting": "MCF-7/Adr; MCF-7/Adr vs MCF-7", "result": "(3.1x)#"}, {"measurement": "IC50", "setting": "MCF-7/Adr; SRB, 72 h, read-out: IC50", "result": 9.4, "unit": "nM"}, {"measurement": "folds of resistance (IC50 ratio vs parent cell line)", "setting": "SK-N-FI; SK-N-FI vs SK-N-As", "result": "(1.9x)#"}, {"measurement": "IC50", "setting": "SK-N-FI; SRB, 72 h, read-out: IC50", "result": 23, "unit": "nM"}, {"measurement": "IC50", "setting": "[2]", "result": 2.7, "unit": "nM"}, {"measurement": "IC50", "setting": "[2]; Table 1, XTT", "result": 3, "unit": "nM"}, {"measurement": "IC50", "setting": "[2]; Table 7, CEM", "result": 2.9, "unit": "nM"}, {"measurement": "IC50", "setting": "[2]; read-out: IC50 (A), Table 2A, parent cell line", "result": 3.2, "unit": "nM"}, {"measurement": "folds of resistance (IC50 ratio vs parent cell line)", "setting": "DC-3F/ADX; Table 1C, DC-3F/ADX vs DC-3F", "result": "(14.5x)#"}, {"measurement": "IC50", "setting": "DC-3F/ADX; Table 1C, SRB, 72 h", "result": 53, "unit": "nM"}, {"measurement": "IC50", "setting": "DC-3F/ADX; relative potency ordering", "result": 60, "unit": "nM"}, {"measurement": "IC50", "setting": "[3]; Table 1C, SRB, 72 h", "result": 3.7, "unit": "nM"}, {"measurement": "IC50", "setting": "[3]; relative potency ordering", "result": 3.6, "unit": "nM"}]}]}
